{"source": "patent US20210338755A1", "about": "“AQUEOUS EXTRACT FROM CELLS OF FITZROYA CUPRESSOIDES (ALERCE) WITH ANTI- AGING AND SKIN REGENERATION PROPERTIES” (RUBISCO BIOTECHNOLOGY, priority 2018, published 2021)", "tested_on": "HaCaT cells", "assay": "Scratch wound experiment with cell division inhibitor mitomycin C", "format": "cell-based", "conditions": "48 hours; 20 μmol/L mitomycin C before treatment with 0.125% v/v extract", "text": "Evaluation of the effect of mitomycin C in wound healing repair. […] 20 μmol/L of Mitomycin C was applied before each treatment.\nThe application of mitomycin inhibits division of the HaCaT cells that, together with cell migration, are the two mechanisms involved in wound healing repair.", "data": [{"compound": "CO[C@@]12[C@H](COC(N)=O)C3=C(C(=O)C(C)=C(N)C3=O)N1C[C@@H]1N[C@@H]12", "note": "[mitomycin C]", "values": [{"measurement": "effect on wound closure induced by Alerce cell culture extract", "result": "significantly inhibited the wound closure"}]}]}
